This is an account of results in patent US20240423246A1, “RAPAMYCIN FOR INCREASED MILK PRODUCTION” (THE STATE OF ISRAEL, MINISTRY OF AGRICULTURE & RURAL …, priority 2023, published 2024).

The target of data set [1] is T1, mammalian target of rapamycin (mTOR) (Bos taurus, UniProt E1BFB4). Nature of the data set: S6 phosphorylation in mammary parenchyma after single intramammary rapamycin administration (immunoblot, immunohistochemistry). Format: in vivo, bovine (Holstein calves). Here is the method:
(§1) Three-month-old female Holstein calves (˜90 kg body weight [BW]) that were raised on the Volcani Center's experimental farm were used in these experiments. During the experimental periods, each mammary gland was administered via the teat canal with 2 mL of vehicle, composed of sterile PBS containing 10% polyethylene glycol (Sigma, St. Louis, MO) and 10% Tween 80 (Sigma). In individual experiments, the vehicle was supplemented with Evans blue to analyze the penetration of this solution into the mammary epithelium, or with rapamycin to analyze its effect on cellular activities. The vehicle was administered using a sterile 22G IV cannula (Deltaven, Viadana, (MN) Italy), cut to ˜1.5 cm and inserted (without the needle) into the teat canal. […] In the relevant experiments, estrogen (0.1 mg/kg per day, Sigma) and progesterone (0.25 mg/kg per day, Sigma) were administered following the rapamycin treatment by daily subcutaneous injections for 4 consecutive days. The design of the studies was based on the distinct morphology and activity of the individual “quarters” (i.e., glands) of the bovine udder which can be individually affected. Thus, in studies analyzing the rapamycin effects, front or rear glands of each side of the calf served as internal controls for the other two rapamycin-administered glands. The dye Evans blue was added to one of the vehicle-treated glands to follow its penetration into the epithelial morphology in close and far regions from the teat (FIG. 1).
Immunohistochemistry was performed on the 5-μm paraffin-embedded sections after antigen retrieval. The reaction with primary antibodies against β-casein (Barash lab), pS6 (Cell signaling Inc.), CK18 (GeneTex), and PCNA (BioLegend), was initiated by blocking the sections with 10% bovine serum albumen and 5% goat serum in 0.1% PBST for 1 h prior to overnight incubation with the first antibody at 4° C. Sections were washed and incubated with N-Histofine (Nichirei Biosciences, Tokyo, Japan) for 30 min at room temperature. Signals were generated with 3,3-diaminobenzidine (DAB) substrate (Vector Laboratories, Burlingame, CA).
(§2) Proteins from the parenchymal region of each mammary gland were extracted with RIPA buffer containing 10 mM Tris-HCl pH 7.5, 150 mM NaCl, 0.1% SDS, 1% sodium deoxycholate and 5 mM EDTA (Sigma), protease inhibitor cocktail and phosphatase inhibitor cocktail II (both from Sigma). Equal amounts of protein, determined by QPRO-BCA Kit Standard (Cyanagen, Bologna, Italy) according to the manufacturer's protocol, were subjected to SDS-PAGE. Fractionated proteins were transferred to nitrocellulose filters and the uploading of equal amounts of protein per sample was confirmed by staining the blot with Ponceau S (Sigma). The expression levels of phosphorylated S6 (pS6) and β-actin were determined according to the signals generated with their respective antibodies. Signals were generated with WESTAR Supernova (Cyanagen, Bologna, Italy) combined with Super Signal chemiluminescent substrate (Thermo Fisher Scientific), and detected in a Syngene analyzer (Cambridge, UK).
(§3) To determine an effective concentration and administration interval, mammalian target of rapamycin (mTOR) responsiveness to rapamycin administration was studied in parenchymal regions that were close to and far from the teat. Rapamycin was delivered to the parenchymatic region of two calves at two concentrations (4.16 or 8.32 mg/gland per day). The calves were sacrificed 24 h or 48 h later and the udders were removed. […] Note that complete repression of mTOR activity was avoided in these experiments to preserve the self-renewing capability of the epithelial stem cells.
In general terms: Immunoblotting shows a protein as a band on a membrane.

The target in data set [2] is T1, mammalian target of rapamycin (mTOR). Nature of the data set: S6 phosphorylation after 3 weeks of skip-a-day intramammary rapamycin administration (immunoblot). The class given is in vivo, bovine (Holstein calves). As for the experimental part:
(§4) Three-month-old female Holstein calves (˜90 kg body weight [BW]) that were raised on the Volcani Center's experimental farm were used in these experiments. During the experimental periods, each mammary gland was administered via the teat canal with 2 mL of vehicle, composed of sterile PBS containing 10% polyethylene glycol (Sigma, St. Louis, MO) and 10% Tween 80 (Sigma). In individual experiments, the vehicle was supplemented with Evans blue to analyze the penetration of this solution into the mammary epithelium, or with rapamycin to analyze its effect on cellular activities. […]
as §2, with “Fractionated proteins were transferred to nitrocellulose filters and the uploading of equal amounts of protein per sample was confirmed by staining the blot with Ponceau S (Sigma).” left out

A short description of data set [3]: Mammary tissue morphology and pathology after intramammary rapamycin (H&E). The class given is in vivo, bovine (Holstein calves). As for the experimental part:
as §1
Bovine mammary samples were fixed in Bouin's solution, dehydrated in a graded ethanol series (50% to 100%), cleared in xylene and embedded in paraffin. Paraffin sections (5 μm) were stained with hematoxylin and eosin (H&E; Sigma) to visualize the morphology of the mammary layers.
as §3
The effect of 3 weeks of skip-a-day rapamycin administration (8.32 mg/gland per day) on stem cell self-renewal (FIGS. 3A-3F) was examined.
To study the effect of rapamycin administration and induced stem cell self-renewal on mammary cell proliferation and milk protein expression, front and rear mammary glands of three calves (six for each treatment) were infused with either vehicle or rapamycin for 3 weeks (8.3 mg/gland per day). […]

Data set [4] relates to bovine mammary epithelial stem cell population. The data set is described as follows: Propagation rate of cultured cells from vehicle- and rapamycin-treated glands. Format: cell-based. As for the experimental part: For propagation rate, cells from each treatment were seeded in 96-well cell-culture plates (Corning, Corning, NY) at a density of 10,000 cells/well and cultured in mammary medium composed of DMEM-F12 medium containing 5% FBS, hydrocortisone ([…], Sigma), insulin ([…], Sigma), gentamicin ([…], Biological Industries), streptomycin and penicillin ([…] and 100 U/ml, respectively), hEGF (10 ng/ml, Merck, Darmstadt, Germany), hFGF2 (10 ng/ml, Merck), heparin (4 mg/ml, Merck), cholera toxin (10 ng/ml, Sigma) and B27 ([…], Invitrogen, Carlsbad, CA) (10) for the indicated period.
Rapamycin's effect on cell-propagation rate was analyzed in cultures from individual vehicle- and rapamycin-treated glands (FIG. 4A). This method produces a clear and significant distinction of the bovine mammary epithelial stem cell population from the more differentiated ones.

The test system of data set [5] is Notch1, Jagged1, Delta1, LGR4, LGR5. The data set is described as follows: Relative gene expression of stem cell markers in treated glands (real-time PCR). The class given is in vivo, bovine (Holstein calves). The conditions noted are these: 3 weeks skip-a-day rapamycin; not significant at P<0.05. As for the experimental part:
FIG. 4A-4B: (FIG. 4A) Dispersed cells isolated from individual vehicle- and rapamycin-treated mammary glands were seeded in 96-well plates and cultured in mammary medium. At the indicated time points (arrows), cells were trypsinized, counted and reseeded. Inset: cell number at the end of the culture period. Bars represent mean±SEM. (FIG. 4B) Relative gene expression analysis of luminal progenitor marker (Stat5) and stem cell markers (Notch1, Jagged1, Delta1, LGR4, LGR5). N=4 for vehicle-treated and 3 for rapamycin-treated glands. Six wells of cells from each gland were analyzed.
RNA was extracted from the parenchymal region of each mammary gland using TRIzol reagent and reverse-transcribed with the qScript Synthesis Kit (Quanta BioSciences, Beverly, MA). RNA quality and quantity were determined in a NanoDrop 1000 spectrophotometer (Thermo Fisher Scientific, Wilmington, DE). Quantitative real-time PCR analyses were performed in a StepOnePlus instrument (Applied Biosystems, Foster City, CA) in a […] reaction volume containing 1 μL cDNA, 5 μL PerfeCta SYBR Green FastMix, Rox (2X) (Quanta BioSciences) and 0.5 μL of the primers listed in Table 1. The thermal cycling conditions consisted of 20 s at 95° C. followed by 40 cycles of 3 s at 95° C. and 30 s at 60° C. […] Fold change (relative expression) was calculated using StepOne v2.1 and DataAssist v2.0 software (Applied Biosystems). […]
In general terms: Real-time PCR tracks product formation cycle by cycle.

The next data set has as its system mammary epithelial cells. The data set is described as follows: Mammary cell proliferation by PCNA staining after rapamycin followed by estrogen and progesterone. Format: in vivo, bovine (Holstein calves). The conditions noted are these: 3 weeks 8.3 mg/gland per day, then estrogen and progesterone for 4 days. Here is the method: FIGS. 6A-6C: (FIG. 6A) lower and (FIG. 6B) higher magnifications of PCNA-stained parenchymal cells and counterstained with hematoxylin. S, small ducts; L, large ducts. Bar=50 μm. (FIG. 6C) PCNA+ cells were analyzed in total (left plot), basal (middle plot) and luminal cell (right plot) populations of the small and large ducts. Six independent microscopic fields (X10 magnification) from each of the six glands treated with vehicle and six glands treated with rapamycin were analyzed. Overall, 127 ducts and 10,619 cells, and 122 ducts and 9999 cells were analyzed in the vehicle-treated and rapamycin-treated glands, respectively. ** P<0.01, *** P<0.001.
as §4, with “activities. The vehicle was administered using a sterile 22G IV cannula (Deltaven, Viadana, (MN) Italy), cut to ˜1.5 cm and inserted (without the needle) into the teat canal.” for “activities.”

For another data set, the system named is bovine mammary cell. The conditions noted are these: xanthosine administration; cited from earlier work.
The mark [6] stands for this setting: 24 h after infusion, close to nipple, rapamycin 4.16 mg.
Setting [7] is: 24 h after infusion, close to nipple, rapamycin 8.32 mg.
[8] abbreviates: 48 h after infusion, close to nipple, rapamycin 4.16 mg.
The mark [9] stands for this setting: 48 h after infusion, close to nipple, rapamycin 8.32 mg.
[10] abbreviates: 48 h after infusion, far from nipple, rapamycin 4.16 mg.
Where [11] appears, read: 48 h after infusion, far from nipple, rapamycin 8.32 mg.

Molecules are shown by their SMILES.

For `CO[C@H]1C[C@@H]2CC[C@@H](C)[C@@](O)(O2)C(=O)C(=O)N2CCCC[C@H]2C(=O)O[C@H]([C@H](C)C[C@@H]2CC[C@@H](O)[C@H](OC)C2)CC(=O)[C@H](C)/C=C(\C)[C@@H](O)[C@@H](OC)C(=O)[C@H](C)C[C@H](C)/C=C/C=C/C=C/1C` [Rapamycin], the “pS6/S6 relative to vehicle (100%)” value was “(66%)” in data set [1] (setting [6]); “(95%)” in data set [1] (setting [7]); “(71%)” in data set [1] (setting [8]); “(76%)” in data set [1] (setting [9]); “(93%)” in data set [1] (setting [10]); “(48%)” in data set [1] (setting [11]). Moreover, the “pS6/β-actin relative to vehicle (100%)” value in data set [1] (setting [6]) is reported as “(75%)”; in data set [1] (setting [7]), “(63%)”; in data set [1] (setting [8]), “(64%)”; in data set [1] (setting [9]) it was “(81%)”; in data set [1] (setting [10]), “(68%)”; in data set [1] (setting [11]), “(56%)”. For the same molecule, in data set [2] (3 weeks skip-a-day, 8.32 mg/gland per day, immunoblot 48 h after termination), the “decrease in S6 phosphorylation” value turned out to be 53%. Besides, in data set [2] (skip-a-day, 3-week intramammary administration), the “decrease in mTOR activity” value is reported as about 50%. Further, the “differences in morphology between vehicle- and rapamycin-treated glands” value in data set [3] (3 weeks 8.3 mg/gland per day, then estrogen and progesterone for 4 days) is recorded as “no apparent differences”. In addition, the “effect on mammary gland morphology” value in data set [3] (3 weeks skip-a-day, 8.32 mg/gland per day) was “not associated with any detectable effect”. In addition, in data set [3] (4.16 or 8.32 mg/gland, 24 h or 48 h after administration), the “effect on tissue morphology in the parenchymatic regions” value is “did not seem to have any effect”. For the same molecule, the “pathological consequences of the amount and methodology chosen” value in data set [3] (intramammary administration) is “did not have pathological consequences”. The entries for the “propagation rate difference, cultures from rapamycin-treated vs vehicle-treated gland” value in data set [4] (day 37 of culture), in data set [4] (day 52 of culture) and in data set [4] (end of the culture period) were 1.15 fold, 1.4 fold and 2.6 fold, respectively. For the same molecule, in data set [5], the “stem cell marker gene expression, more than in vehicle-treated counterparts” value was 8-20%. The “increase in total number of PCNA+ cells” value with mammary epithelial cells is 20%.

Consider `O=c1[nH]c(=O)c2ncn([C@@H]3O[C@H](CO)[C@@H](O)[C@H]3O)c2[nH]1` [xanthosine], for which the “suppression of bovine mammary cell proliferation” value in the data set with bovine mammary cell is listed as 50%.
